Structures can show the parent of a compound that is named as a salt. Where two headings read alike, the source gives them in different places.
Biological target: T1, Cav2.2 (Homo sapiens, UniProt Q00975)
T1 construct: expressed in transfected cells; host or cells: HEK-293T/17 (transient, FuGENE 6)
Assay: HEK assay (whole-cell patch clamp, transiently transfected HEK-293T/17 cells, pulses P1 and P5)
Type: cell-based
Settings: holding potential −100 mV
Protocol: HEK-293T/17 cells were transiently transfected in a similar manner as described in FuGENE 6 Package Insert Version 7, April 2002, Roche Applied Science, Indianapolis, Ind. The cells were plated at 2.5×10^5 cells in 2 mL in a 6-well plate, incubated for one night, and achieved a ˜30-40% confluence. In a small sterile tube, sufficient serum-free medium was added as diluent for FuGENE Transfection Reagent (Roche Applied Science, Indianapolis, Ind.) to a total volume of 100 μL. To this medium was added 3 μL of FuGENE 6 Reagent. The mixture was tapped gently to mix. To the prediluted FuGENE 6 Reagent was added 2 μg of DNA solution (0.8-2.0 μg/μL). The DNA/Fugene 6 mixture was gently pipeted to mix the contents and incubated for about 15 minutes at room temperature. The complex mixture was then added to the HEK-293T/17 cells, distributed around the well, and swirled to ensure even dispersal. The cells were returned to the incubator for 24 hours. The transfected cells were then replated at density 2.5×10^5 in a 35 mm dish with 5 glass coverslips and grew in low serum (1%) media for 24 hours. Coverslips with isolated cells were then transferred into a chamber, and calcium channel (e.g., L-type, N-type, etc.) current or other currents for counter screening were recorded from the transiently transfected HEK-293T/17 cells.
The whole-cell voltage clamp configuration of the patch clamp technique was employed to evaluate voltage-dependent calcium currents essentially as described by Thompson and Wong (1991), J. Physiol., 439: 671-689, the entire disclosure of which is herein incorporated by reference. To record calcium channel (e.g., L-type, N-type, etc.) currents for evaluation of inhibitory potency of compounds (steady-state concentration-response analysis), five pulses of 20-30 ms voltage steps to about +10 mV (the peak of the current voltage relationship) were delivered at five Hz every 30 second from a holding potential at −100 mV. In order to obtain an estimate of the degree of use-dependent block of the test compounds, IC50 values were determined at the first and fifth pulse of the train (P1 and P5, respectively, in Table 2). Compound evaluations were carried out essentially as described by Sah D. W. and Bean B. P. (1994), Mol. Pharmacol., 45:84-92, the entire disclosure of which is herein incorporated by reference.

[1] = fifth pulse (P5) of 5 Hz train, read-out: HEK Cav2.2 P5 IC50
[2] = first pulse (P1) of 5 Hz train, read-out: HEK Cav2.2 P1 IC50

T1 sequence (Q00975 whole entry): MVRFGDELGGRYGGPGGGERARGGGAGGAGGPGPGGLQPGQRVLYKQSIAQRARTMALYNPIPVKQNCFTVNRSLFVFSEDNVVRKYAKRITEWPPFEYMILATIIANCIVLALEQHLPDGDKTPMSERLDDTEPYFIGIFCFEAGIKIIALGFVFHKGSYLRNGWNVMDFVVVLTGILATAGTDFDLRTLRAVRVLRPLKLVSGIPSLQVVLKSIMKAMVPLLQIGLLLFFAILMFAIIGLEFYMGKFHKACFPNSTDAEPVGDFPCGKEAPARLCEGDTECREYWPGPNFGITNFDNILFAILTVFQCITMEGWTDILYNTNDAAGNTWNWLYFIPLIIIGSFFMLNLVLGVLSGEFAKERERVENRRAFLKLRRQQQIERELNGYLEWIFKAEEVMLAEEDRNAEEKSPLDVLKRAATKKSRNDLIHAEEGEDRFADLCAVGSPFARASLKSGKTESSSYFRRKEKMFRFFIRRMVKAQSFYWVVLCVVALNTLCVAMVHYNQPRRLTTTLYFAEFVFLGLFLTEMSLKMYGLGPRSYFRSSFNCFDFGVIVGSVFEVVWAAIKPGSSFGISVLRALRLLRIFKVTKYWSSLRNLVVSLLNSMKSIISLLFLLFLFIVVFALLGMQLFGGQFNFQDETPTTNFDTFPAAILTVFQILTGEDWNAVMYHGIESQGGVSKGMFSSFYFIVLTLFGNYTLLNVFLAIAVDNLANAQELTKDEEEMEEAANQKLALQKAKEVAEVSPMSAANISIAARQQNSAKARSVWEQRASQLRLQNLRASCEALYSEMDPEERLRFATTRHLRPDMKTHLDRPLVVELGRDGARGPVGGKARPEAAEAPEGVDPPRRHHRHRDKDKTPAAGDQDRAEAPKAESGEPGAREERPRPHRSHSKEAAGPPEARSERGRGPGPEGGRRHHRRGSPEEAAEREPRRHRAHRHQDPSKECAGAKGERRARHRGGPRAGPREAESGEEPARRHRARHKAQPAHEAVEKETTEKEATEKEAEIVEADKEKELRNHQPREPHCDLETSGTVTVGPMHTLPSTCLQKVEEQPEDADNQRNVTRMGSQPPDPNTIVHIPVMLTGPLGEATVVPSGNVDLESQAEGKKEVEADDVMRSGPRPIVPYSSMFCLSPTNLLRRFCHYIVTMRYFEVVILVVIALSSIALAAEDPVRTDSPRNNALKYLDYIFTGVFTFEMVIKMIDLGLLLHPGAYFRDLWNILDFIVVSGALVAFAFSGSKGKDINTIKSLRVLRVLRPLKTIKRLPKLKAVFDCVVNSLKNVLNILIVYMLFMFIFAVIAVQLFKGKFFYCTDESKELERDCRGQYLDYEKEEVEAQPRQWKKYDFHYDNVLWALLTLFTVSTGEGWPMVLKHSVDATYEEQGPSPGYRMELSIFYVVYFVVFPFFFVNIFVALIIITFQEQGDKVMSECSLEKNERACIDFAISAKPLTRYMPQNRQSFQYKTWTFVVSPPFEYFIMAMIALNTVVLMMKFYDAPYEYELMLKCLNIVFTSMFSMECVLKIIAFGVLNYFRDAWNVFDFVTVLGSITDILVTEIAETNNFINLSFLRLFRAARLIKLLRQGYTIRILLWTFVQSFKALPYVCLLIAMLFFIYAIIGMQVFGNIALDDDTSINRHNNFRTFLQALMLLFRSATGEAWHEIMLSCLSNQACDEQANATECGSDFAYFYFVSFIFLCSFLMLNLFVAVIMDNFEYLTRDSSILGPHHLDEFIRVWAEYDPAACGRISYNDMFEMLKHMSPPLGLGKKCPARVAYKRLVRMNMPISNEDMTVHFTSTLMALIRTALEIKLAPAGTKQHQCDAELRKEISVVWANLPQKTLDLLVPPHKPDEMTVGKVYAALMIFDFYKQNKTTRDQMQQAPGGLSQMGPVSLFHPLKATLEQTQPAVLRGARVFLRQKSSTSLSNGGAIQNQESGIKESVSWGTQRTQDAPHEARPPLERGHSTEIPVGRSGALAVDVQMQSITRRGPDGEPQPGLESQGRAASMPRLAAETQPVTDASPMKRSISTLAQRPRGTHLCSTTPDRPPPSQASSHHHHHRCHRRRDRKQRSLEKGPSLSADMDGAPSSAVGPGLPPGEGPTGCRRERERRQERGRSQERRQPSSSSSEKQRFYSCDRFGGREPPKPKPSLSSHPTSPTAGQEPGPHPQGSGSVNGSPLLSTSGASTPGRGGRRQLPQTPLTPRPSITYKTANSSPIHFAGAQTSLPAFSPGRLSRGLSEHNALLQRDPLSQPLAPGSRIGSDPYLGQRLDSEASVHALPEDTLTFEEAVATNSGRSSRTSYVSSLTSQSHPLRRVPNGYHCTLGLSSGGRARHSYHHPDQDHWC
T1 sequence (P54284 whole entry partner): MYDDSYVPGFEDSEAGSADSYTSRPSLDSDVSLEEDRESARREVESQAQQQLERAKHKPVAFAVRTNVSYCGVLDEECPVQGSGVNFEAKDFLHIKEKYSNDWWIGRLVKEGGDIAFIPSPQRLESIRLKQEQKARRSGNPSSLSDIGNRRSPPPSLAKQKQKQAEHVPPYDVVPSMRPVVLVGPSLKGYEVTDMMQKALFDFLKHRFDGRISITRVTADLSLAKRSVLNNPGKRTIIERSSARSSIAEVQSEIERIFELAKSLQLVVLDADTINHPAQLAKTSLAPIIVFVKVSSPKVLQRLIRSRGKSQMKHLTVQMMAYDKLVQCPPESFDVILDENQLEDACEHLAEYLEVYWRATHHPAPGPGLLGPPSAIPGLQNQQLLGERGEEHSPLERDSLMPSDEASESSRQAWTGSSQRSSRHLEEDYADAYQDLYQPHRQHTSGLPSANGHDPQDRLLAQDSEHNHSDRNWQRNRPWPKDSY
T1 sequence (P54289 25-946 partner limits assumed): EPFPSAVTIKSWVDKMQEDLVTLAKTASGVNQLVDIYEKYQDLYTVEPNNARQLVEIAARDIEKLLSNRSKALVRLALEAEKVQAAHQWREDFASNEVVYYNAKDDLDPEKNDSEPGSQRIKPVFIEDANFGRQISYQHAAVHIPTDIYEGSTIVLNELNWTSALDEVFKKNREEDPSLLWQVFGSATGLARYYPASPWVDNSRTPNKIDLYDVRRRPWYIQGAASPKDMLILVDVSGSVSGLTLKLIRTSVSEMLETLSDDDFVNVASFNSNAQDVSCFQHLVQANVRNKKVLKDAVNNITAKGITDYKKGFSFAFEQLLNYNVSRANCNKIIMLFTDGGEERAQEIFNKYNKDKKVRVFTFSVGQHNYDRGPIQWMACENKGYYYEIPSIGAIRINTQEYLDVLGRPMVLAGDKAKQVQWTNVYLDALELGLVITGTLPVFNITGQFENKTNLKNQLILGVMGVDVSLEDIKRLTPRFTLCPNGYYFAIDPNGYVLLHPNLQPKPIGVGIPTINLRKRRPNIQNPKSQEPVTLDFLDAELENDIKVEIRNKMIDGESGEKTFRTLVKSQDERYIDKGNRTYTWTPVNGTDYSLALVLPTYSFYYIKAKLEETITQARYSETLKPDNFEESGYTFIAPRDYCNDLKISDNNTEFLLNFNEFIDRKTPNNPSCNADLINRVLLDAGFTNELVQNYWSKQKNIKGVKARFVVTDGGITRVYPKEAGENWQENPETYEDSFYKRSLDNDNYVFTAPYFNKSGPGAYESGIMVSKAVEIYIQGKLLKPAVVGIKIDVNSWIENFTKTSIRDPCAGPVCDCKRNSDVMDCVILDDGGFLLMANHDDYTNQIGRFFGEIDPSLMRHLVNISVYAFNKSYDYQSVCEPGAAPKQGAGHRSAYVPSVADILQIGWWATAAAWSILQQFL
T1 sequence (P54289 947-1103 partner limits assumed): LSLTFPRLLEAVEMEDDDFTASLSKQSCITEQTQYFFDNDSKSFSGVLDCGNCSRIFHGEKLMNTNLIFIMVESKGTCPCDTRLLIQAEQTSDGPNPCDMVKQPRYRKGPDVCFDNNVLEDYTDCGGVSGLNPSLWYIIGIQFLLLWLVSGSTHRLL

Structure (SMILES)	IC50 [1]	IC50 [2]
CC(C)(C)C(=O)N(Cc1ccc(N2CC[C@H](Oc3ccccn3)C2)nc1)c1ccc(F)cc1 (stereo in doubt) [Compound 50, N-(4-Fluorophenyl)-2,2-dimethyl-N-{6-[3-(pyridin-2-yloxy)-pyrrolidin-1-yl]-pyridin-3-ylmethyl}-propionamide]	0.8 µM	3.7 µM
CC(C)(C)C(=O)N(Cc1cnc(N2CCCC2)s1)c1ccc(F)cc1 [Compound 1, N-(4-fluorophenyl)-2,2-dimethyl-N-(2-pyrrolidin-1-yl-thiazol-5-ylmethyl)-propionamide hydrochloride]	8.3 µM	20.3 µM
CCN(CC)c1ccc(CN(C(=O)C(C)(C)C)c2ccc(F)cc2)cc1 [Compound 5, N-(4-Diethylaminobenzyl)-N-(4-fluorophenyl)-2,2-dimethyl-propionamide hydrochloride]	1.1 µM	2.9 µM
CCN(c1cccc(CN(C(=O)C(C)(C)C)c2ccc(F)cc2)c1)C1CC1 [Compound 6, N-(3-(Cyclopropyl(ethyl)amino)-benzyl)-N-(4-fluorophenyl)-2,2-dimethyl-propionamide hydrochloride]	1.5 µM	6.2 µM
CCN(c1ccc(CN(C(=O)C2CCN(Cc3ccccc3)CC2)c2ccc(F)cc2)cn1)C1CC1 [Compound 12, 1-benzyl-piperidine-4-carboxylic acid [6-(Cyclopropyl(ethyl)amino)-pyridin-3-ylmethyl]-(4-fluorophenyl)-amide dihydrochloride]	0.4 µM	1 µM
CCN(c1ccc(CN(C(=O)C2Cc3ccccc3CN2)c2ccc(F)cc2)cn1)C1CC1 (stereo not shown) [Compound 14, 1,2,3,4-tetrahydro-isoquinoline-3-carboxylic acid [6-(Cyclopropyl(ethyl)amino)-pyridin-3-ylmethyl]-(4-fluorophenyl)-amide dihydrochloride]	0.6 µM	10.1 µM
CCN(c1ccc(CN(C(=O)C2Cc3ccccc3CN2C)c2ccc(F)cc2)cn1)C1CC1 (stereo not shown) [Compound 15, 2-methyl-1,2,3,4-tetrahydro-isoquinoline-3-carboxylic acid [6-(Cyclopropyl(ethyl)amino)-pyridin-3-ylmethyl]-(4-fluorophenyl)-amide dihydrochloride]	0.4 µM	2.1 µM
CC(CC(=O)N(Cc1ccc(N(C)CCc2ccccn2)nc1)c1ccc(F)cc1)C(F)(F)F (stereo not shown) [Compound 23, 4,4,4-Trifluoro-N-(4-fluorophenyl)-3-methyl-N-{6-[methyl-(2-pyridin-2-yl-ethyl)-amino]-pyridin-3-ylmethyl}-butyramide]	1.1 µM	–
CCC(C)(C)C(=O)N(Cc1ccc(N2CCN(S(C)(=O)=O)CC2)nc1)c1ccc(F)cc1 [Compound 43, N-(4-Fluorophenyl)-N-[6-(4-methanesulfonyl-piperazin-1-yl)-pyridin-3-ylmethyl]-2,2-dimethyl-butyramide]	3 µM	10.2 µM
CC(=O)N1CCN(c2ccc(CN(C(=O)C(C)(C)C)c3ccc(F)cc3)cn2)CC1 [Compound 44, N-[6-(4-Acetyl-piperazin-1-yl)-pyridin-3-ylmethyl]-N-(4-fluorophenyl)-2,2-dimethyl-propionamide]	7.5 µM	18.4 µM
CC(C)(C)C(=O)N(Cc1ccc(N2CCCC2CO)nc1)c1ccc(F)cc1 (stereo not shown) [Compound 48, N-(4-Fluorophenyl)-N-[6-(2-hydroxymethyl-pyrrolidin-1-yl)-pyridin-3-ylmethyl]-2,2-dimethyl-propionamide]	4.2 µM	19.8 µM
CC(C)(C)C(=O)N(Cc1ccc(N2CCC[C@H]2COc2ccccn2)nc1)c1ccc(F)cc1 [Compound 49, N-(4-Fluorophenyl)-2,2-dimethyl-N-{6-[2-(pyridin-2-yloxymethyl)-pyrrolidin-1-yl]-pyridin-3-ylmethyl}-propionamide]	0.6 µM	2.3 µM
CC(C)(C)C(=O)N(Cc1ccc(N2CC[C@H](O)C2)nc1)c1ccc(F)cc1 [Compound 51, N-(4-Fluorophenyl)-N-[6-(3-hydroxy-pyrrolidin-1-yl)-pyridin-3-ylmethyl]-2,2-dimethyl-propionamide]	12.8 µM	34 µM
CC(C)(C)C(=O)N(Cc1ccc(N2CCC(c3nc4ccccc4[nH]3)CC2)nc1)c1ccc(F)cc1 [Compound 53, N-[4-(1H-Benzoimidazol-2-yl)-3,4,5,6-tetrahydro-2H-[1,2′]bipyridinyl-5′-ylmethyl]-N-(4-fluorophenyl)-2,2-dimethyl-propionamide]	0.3 µM	0.6 µM

Now from value to molecule:

IC50 [1]	IC50 [2]	Structure (SMILES)
0.8 µM	2.9 µM	CCN(CC)c1cccc(CN(C(=O)C(C)(C)C)c2ccc(F)cc2)n1 [Compound 4, N-(6-diethylamino-pyridin-2-ylmethyl)-N-(4-fluorophenyl)-2,2-dimethyl-propionamide hydrochloride]
1.8 µM	–	CCN(c1ccc(CN(C(=O)CCC(C)C)c2ccc(F)cc2)cn1)C1CC1 [Compound 13, 4-methyl-pentanoic acid [6-(Cyclopropyl(ethyl)amino)-pyridin-3-ylmethyl]-(4-fluorophenyl)-amide hydrochloride]
1.3 µM	3.5 µM	CCN(CC)c1ccc(CN(C(=O)C(C)(C)C)c2ccc(F)cc2C)cn1 [Compound 36, N-(6-Diethylamino-pyridin-3-ylmethyl)-N-(4-fluoro-2-methyl-phenyl)-2,2-dimethyl-propionamide]
0.7 µM	1.8 µM	CCN(CC)c1ccc(CN(C(=O)C(C)(C)C)c2ccccc2C(C)C)cn1 [Compound 37, N-(6-Diethylamino-pyridin-3-ylmethyl)-N-(2-isopropyl-phenyl)-2,2-dimethyl-propionamide]
7.6 µM	17.1 µM	CN(CCO)c1ccc(CN(C(=O)C(C)(C)C)c2ccc(F)cc2)cn1 [Compound 38, N-(4-Fluorophenyl)-N-{6-[(2-hydroxy-ethyl)-methyl-amino]-pyridin-3-ylmethyl}-2,2-dimethyl-propionamide]
0.5 µM	1 µM	Cc1ccc(OCCN(C)c2ccc(CN(C(=O)C(C)(C)C)c3ccc(F)cc3)cn2)nc1 [Compound 39, N-(4-Fluorophenyl)-2,2-dimethyl-N-(6-{methyl-[2-(5-methyl-pyridin-2-yloxy)-ethyl]-amino}-pyridin-3-ylmethyl)-propionamide]
11.2 µM	21 µM	Cc1ccc(OCCN(C)c2ccc(CN(C(=O)C(C)(C)C)c3ccc(F)cc3)cn2)nn1 [Compound 40, N-(4-Fluorophenyl)-2,2-dimethyl-N-(6-{methyl-[2-(6-methyl-pyridazin-3-yloxy)-ethyl]-amino}-pyridin-3-ylmethyl)-propionamide]
2 µM	6.3 µM	CCN(Cc1ccncc1)c1ccc(CN(C(=O)C(C)(C)C)c2ccc(F)cc2)cn1 [Compound 41, N-[6-(Ethyl-pyridin-4-ylmethyl-amino)-pyridin-3-ylmethyl]-N-(4-fluorophenyl)-2,2-dimethyl-propionamide]
7.4 µM	11.6 µM	CC(C)(C)C(=O)N(Cc1ccc(N2CCCC2)nc1)c1ccc(F)cc1 [Compound 42, N-(4-Fluorophenyl)-2,2-dimethyl-N-(6-pyrrolidin-1-yl-pyridin-3-ylmethyl)-propionamide]
2.5 µM	10.6 µM	CCOC(=O)c1cn(C(C)(C)C(=O)N(Cc2ccc(N(CC)CC)nc2)c2ccc(F)cc2)nn1 [Compound 45, 1-{1-[(6-Diethylamino-pyridin-3-ylmethyl)-(4-fluorophenyl)-carbamoyl]-1-methyl-ethyl}-1H-[1,2,3]triazole-4-carboxylic acid ethyl ester]
1.6 µM	9.5 µM	CN(CCOCc1cccnc1)c1ccc(CN(C(=O)C(C)(C)C)c2ccc(F)cc2)cn1 [Compound 47, N-(4-Fluorophenyl)-2,2-dimethyl-N-(6-{methyl-[2-(pyridin-3-ylmethoxy)-ethyl]-amino}-pyridin-3-ylmethyl)-propionamide]
6.3 µM	17.1 µM	CCN(CC)C1CCN(c2ccc(CN(C(=O)C(C)(C)C)c3ccc(F)cc3)cn2)C1 (stereo not shown) [Compound 52, N-[6-(3-Diethylamino-pyrrolidin-1-yl)-pyridin-3-ylmethyl]-N-(4-fluorophenyl)-2,2-dimethyl-propionamide]
5.3 µM	8.9 µM	CCN(CC)c1ccc(CN(C(=O)C(C)(C)n2cc(CN(C)C)nn2)c2ccc(F)cc2)cn1 [Compound 54, N-(6-Diethylamino-pyridin-3-ylmethyl)-2-(4-dimethylaminomethyl-[1,2,3]triazol-1-yl)-N-(4-fluorophenyl)-isobutyramide]
